According to patent publication US20250161286A1 (AEVIS BIO, INC., priority 2022, published 2025):

What was measured:
cereblon (CRBN) = cereblon (CRBN) (Homo sapiens, UniProt Q96SW2); assay: In vitro CRBN binding assay (AlphaScreen, competitive inhibition of the PROTAC assay)
BV-2 cells = assay: Nitrite content in culture solution of LPS-stimulated BV-2 cells (Griess Reagent System); type: cell-based, mouse; details: BV-2 cells, 3.33, 10 or 30 μM, 1 μg/mL LPS, 24 hours
Procedure: To further confirm the oxidative stress suppression effect, the content of nitrite released due to an inflammatory response and the expression levels of iNOS, which is an enzyme that produces nitric oxide, and COX-2, which is cyclooxygenase-2, were determined in mouse microglial cells (BV-2, ATCC, Manassas, VA, USA).
To determine the content of nitrite and the protein expression levels of iNOS and COX-2, BV-2 was seeded in a 12-well plate (Corning, MD, USA) at 1.5×10^5 cells/well, and cultured using a DMEM medium (Corning, MD, USA) containing 10% fetal bovine serum (Corning, MD, USA) and 100 U/ml of penicillin/streptomycin (Corning, MD, USA) at 37° C. in a 5% CO2 incubator for one day for stabilization. […] 1 μg/mL of LPS (Sigma, USA) was added to all experimental groups excluding the non-inflammation-induced group and allowed to react at 37° C. in a 5% CO2 incubator for 24 hours.
The cell culture solution was collected to measure the content of nitrite, and centrifuged at 3,000 rpm for 5 minutes to obtain a supernatant. The concentration of nitrite in the cell culture solution was measured using a microplate reader (NEO2MALPHAB Synergy Neo-2, BioTek, CA, US) according to the manual of the Griess Reagent System (#G2930, Promega, WI, USA).

[1] = system: tyrosine hydroxylase (TH); assay: Immunohistochemical test of tyrosine hydroxylase in brain of MPTP mice; type: in vivo, mouse; details: oral, versus MPTP group
Procedure: To cause the disease, mice in the G2, G3, G4, and G5 groups were administered MPTP dissolved in saline via an intraperitoneal route at 2-hour intervals four times a day (20 mg/kg/time), while the G1 group received the same amount of saline.
After the end of the test on day 7, the brain tissue of the sacrificed mice was collected, sectioned, and analyzed.
Six mice per group were fixed by perfusion with saline followed by perfusion with 4% paraformaldehyde (Biosesang, cat #PC2031-000-00). Each brain tissue was rapidly frozen after isolation and stored at −80° C. until tissue sectioning. Sections for immunohistochemical testing were embedded in an OCT compound (SAKURA, cat #4583), samples were sectioned into 20 μm-thick sections using a cryomicrotome, Leica CM1950 (Leica Microsystems, Germany), and each section was stored at 4° C. until an antibody reaction. […] Images stained with the tyrosine hydroxylase antibody were observed under a microscope (Olympus, SZ61, BX51), and the OD values, which are immunostaining-positive, observed in the striatum and substantia nigra tissue were measured and analyzed by the Image J program.

Aiolos and Ikaros = Aiolos and Ikaros degradation by immunoblotting in MM.1S cells; type: cell-based, human
Procedure: To this end, the MM.1S cell line was cultured in an RPMI medium (Corning, MD, USA) supplemented with 10% fetal bovine serum (Corning, MD, USA), 100 U/ml of penicillin (Corning, MD, USA), and 100 μg/ml of streptomycin (Corning, MD, USA) at 37° C. in a 5% CO2 incubator. […] The cells were disrupted by adding a RIPA buffer containing a protease inhibitor cocktail (Thermo Fisher Scientific) and centrifuged at 14,000 rpm for 15 minutes at 4° C. to obtain a cell extract. Equal amounts of the cell extract were loaded, and proteins were separated through SDS-PAGE and then transferred to a PVDF membrane. The protein-transferred membrane was blocked using skim milk, incubated with a primary antibody for 3 hours at room temperature, and then incubated with an HRP-conjugated secondary antibody for 1 hour at room temperature. The resulting product was washed with TBS-T three times between steps. Detection was performed using a chemoluminescence reagent (Thermo Fisher Scientific), and confirmed using Chemidoc (iBright CL1500, Invitrogen, CA, USA). Aiolos (#15103), Ikaros (#9034) and GAPDH (#2118S) antibodies used as primary antibodies and a secondary antibody were purchased from Cell Signaling Technology (Danvers, MA, USA).
Additionally, the expression of Aiolos and Ikaros, mediated by 3-MP, was confirmed over time. […]

Compound: Nc1cccc2c1C(=S)N(C1CCC(=O)NC1=O)C2=O (stereo not drawn) [3-MP, 3-thiopomalidomide]
- IC50 (cereblon (CRBN)): 0.19 µM
- amount of nitrite released by LPS (BV-2 cells): effectively reduced the amount of the residual nitrite released by LPS
- expression of tyrosine hydroxylase in the substantia nigra ([1]; 30 and 90 mg/kg): increased in a statistically significant manner
- expression of tyrosine hydroxylase (TH) in the striatum ([1]; all doses, particularly 30 mg/kg): significantly increased
- expression of Aiolos and Ikaros over time (Aiolos and Ikaros; 10 μM, 1, 4, 8, 12 or 24 hours): does not reduce the expression of Aiolos and Ikaros
- expression of Aiolos and Ikaros (Aiolos and Ikaros; 0.000128-10 μM, 4 hours): does not reduce the expression of Aiolos and Ikaros
